Source: patent US11987588B2, “Modulators of the beta-3 adrenergic receptor useful for the treatment or prevention of heart failure and disorders related thereto” (Arena Pharmaceuticals, Inc., priority 2017, dated 2024)
pIC50: −log10 of the molar value. Entries after “also recorded” stand apart in the source; their conditions may differ.

Tests used:
[1] = molecular target: Beta-3 Adrenergic Receptor (Homo sapiens (Human), UniProt P13945); assay: Homogeneous Time-Resolved Fluorescence (HTRF) cAMP antagonist assay, IC50 determination; format: cell-based; conditions: CHO-K1 cells stably expressing recombinant receptor, isoproterenol at EC90
Beta-3 Adrenergic Receptor, sequence (P13945 whole entry, species assumed): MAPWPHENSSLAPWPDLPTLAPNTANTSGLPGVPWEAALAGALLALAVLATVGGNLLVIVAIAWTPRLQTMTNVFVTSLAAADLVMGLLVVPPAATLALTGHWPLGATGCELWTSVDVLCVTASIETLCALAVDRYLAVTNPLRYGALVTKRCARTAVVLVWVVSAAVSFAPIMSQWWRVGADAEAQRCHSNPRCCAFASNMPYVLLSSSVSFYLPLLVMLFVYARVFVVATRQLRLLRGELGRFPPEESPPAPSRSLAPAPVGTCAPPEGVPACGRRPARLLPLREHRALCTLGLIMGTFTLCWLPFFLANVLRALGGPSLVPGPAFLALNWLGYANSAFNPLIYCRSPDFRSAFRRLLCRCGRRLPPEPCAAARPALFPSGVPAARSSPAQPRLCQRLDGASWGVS
How it was run: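 Antagonist mode: isoproterenol at its predetermined EC90 added after compound to recombinant CHO-K1 cells in IBMX-containing PBS, 1 h, room temperature. Compounds tested as 5-fold, 10-point dilutions, top final typically 10 or 100 μM. HTRF signal converted to cAMP via standard curve, giving IC50.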

[2] = test system: chronic heart failure (CHF) rats; assay: Chronic heart failure (CHF) rat model, attenuation of negative contractile effects of BRL 37344 on left ventricular pressure; format: in vivo; conditions: 10 min infusion at 3, 10, 30 mg/kg/hr, then bolus of BRL (3 μg/kg)
Description: Beta-3 adrenergic receptor antagonists can be evaluated for effects on cardiac contractility in chronic heart failure (CHF) rats. Beta-3 adrenergic receptor expression is weak in the normal rat heart and higher in the rat heart with CHF. Because beta-3 adrenergic receptor expression is higher in the rat heart with CHF, a compound of the present invention was evaluated for the ability to attenuate the negative contractile effects of the beta-3 adrenergic receptor agonist BRL 37344 (BRL) compared to baseline in this CHF rat model.
Myocardial infarction was induced in male Sprague-Dawley rats by performing left coronary descending artery ligation. […]
Heart failure was evaluated weekly following surgery by testing impaired left ventricular function by echocardiography. Left ventricle end-diastolic volume (LVEDV) and left ventricle end-systolic volume (LVESV) were measured for at least three consecutive cardiac cycles in long-axis view images. Ejection Fraction (EF %) was calculated using the following formula: EF %=(LVEDV-LVESV)/LVEDV. […]
A direct determination of left ventricular function was used for all rats to evaluate the effects of compounds on left ventricular contractility. […] Left ventricular pressure (LVP) was monitored by LabChart with POWERLAB® Data Acquisition System (ADInstruments, Sydney, Australia). […]

pIC50 [1]: 8.07
Compound: CNS(=O)(=O)c1cccc(OC[C@@H](O)CN[C@H]2COC3(CCN(S(=O)(=O)c4cnc5cc[nH]c5c4)CC3)C2)c1 [Compound 505, 3-((S)-3-((R)-8-(1H-pyrrolo[3,2-b]pyridin-6-ylsulfonyl)-1-oxa-8-azaspiro[4.5]decan-3-ylamino)-2-hydroxypropoxy)-N-methylbenzenesulfonamide]
left ventricular pressure (LVP) [2]: dose-dependent improvement; also recorded: inhibition of negative effects of BRL on left ventricular pressure (LVP)
